According to patent US20250161287A1, “METHODS, COMPOSITIONS, AND COMBINATIONS FOR PREVENTING OR TREATING CANCER RECURRENCE” (VUJA DE SCIENCES, INC., priority 2022, published 2025):

Legend:
[1] = system: MG63.3 OS cell line; experiment: in vitro 3D BME assay with MG63.3 OS cell line; format: cell-based, human; details: MG63.3, Day 6 MTS, at or below 1 μM
Source text: (§1) 3D basement membrane extract (BME) assay was developed at the NCI Barkan (D. Barkan et al. 2008; Dalit Barkan and Green 2011; Hen and Barkan 2020). BME is purified from Engelbreth-Holm-Swarm (EHS) tumor, primarily made up of laminin, collagen IV, entactin, and heparin sulfate proteoglycans (Cultrex Reduced Growth Factor Basement Membrane Extract, PathClear n.d.), which allows it to more accurately reflect the 3D extracellular environment in the body.
(§2) Initially >150 selected therapeutic agents were tested on BME based on the likelihood for either a positive effect or a […] negative effect (as negative controls). […] These therapeutic agents were also tested in dose response (as broad as 1 pM-100 μM) for 2D cytotoxicity (MTT) and the IC50 was calculated. Where required, the hits from the initial screen were also further characterized at additional doses <100 nM in order to further determine the relative selectivity compared to the 2D IC50.
(§3) The influence of drug exposure on the metastatic phenotype was assessed in an in vitro assay of ME and escape from dormancy using a 3D BME assay as previously reported, which was adapted for use with OS cells.
(§4) Cultrex® PathClear, Reduced Growth Factor Basement Membrane Extract (BME—Bio-Techne, Minneapolis, MN) was added ([…]) to a 96-well plate and allowed to gel by incubating at 37° C. for ≥30 min. Cells were harvested, washed with DMEM (no glucose, no FBS, Gibco, Grand Island, NY) and centrifuged at 1500 g×5 mins. The media was aspirated and the remaining cell pellet flicked for about 10 s to ensure disaggregation.
(§5) Cells were diluted in assay media containing 2% BME, resuspended vigorously and 150 μL of the cell suspension was added on top of the gelled 3D BME layer. […] Cell numbers were determined in control vehicle (cells in media+0.1% DMSO), or treated wells and were measured on the indicated days by addition of 20 μL/well of MTS reagent (Cell Titer 96 Aqueous One, Promega, Madison, WI), followed by incubation at 37° C. for 2 h and absorbance measurements at 490 nm via plate reader (Molecular Devices, San Jose CA).
(§6) All conditions were conducted in quadruplicate and each experiment was carried out at least 3 separate times. All comparisons were made between treatment and vehicle control at concordant time points. Statistical analyses and non-linear regressions were derived using GraphPad Prism statistical software.

[2] = system: MG63.3 OS cell line; experiment: 2D growth / cytotoxicity by MTT, MG63.3; details: MG63.3, MTT, exposures up to 1 μM / assessed exposures
Experimental: (§7) The number of viable cells present in 2D culture was determined by MTT as previously reported. Briefly, cells were plated in 96-well plates at 2,000 cells/well and incubated at 37° C. for 24 h. After 24 h, the media was replaced with fresh media containing drugs at the desired concentrations (10 pM-10 μM) and incubated at 37° C. for 72 h. After 72 h, MTT reagent (20 L/well of a 5 mg/mL stock solution in sterile water; Sigma, St. Louis, MO) was added to each well and the plate was incubated at 37° C. for 2 h. DMSO ([…]) was then added to each well to solubilize the formazan crystals.
(§8) The resulting absorbance was measured at 490 nm via plate reader (Molecular Devices, San Jose, CA). DMSO (0.1%) was used as vehicle control, while 20 μM rapamycin was used as a positive cell-kill control. The experimental conditions were conducted in triplicate and each experiment was repeated three times. Regression lines and IC50's were calculated using a four-parameter variable slope nonlinear fit in GraphPad Prism.

[3] = system: K7M2 OS cell line; experiment: in vitro 3D BME assay with K7M2 OS cell line; format: cell-based, mouse; details: K7M2, Day 6 MTS, at or below 1 μM
Source text: as §1, §2, §3, §4, §5, §6

[4] = system: K7M2 OS cell line; experiment: 2D growth / cytotoxicity by MTT, K7M2; format: cell-based, mouse
Experimental: as §7, with “After 24 h, the media was replaced with fresh media containing drugs at the desired concentrations (10 pM-10 μM) and incubated at 37° C. for 72 h.” left out
as §8

[5] = target: JAK1 (Homo sapiens, UniProt P23458); details: cited from earlier work
Sequence of JAK1 (P23458 whole entry, species assumed): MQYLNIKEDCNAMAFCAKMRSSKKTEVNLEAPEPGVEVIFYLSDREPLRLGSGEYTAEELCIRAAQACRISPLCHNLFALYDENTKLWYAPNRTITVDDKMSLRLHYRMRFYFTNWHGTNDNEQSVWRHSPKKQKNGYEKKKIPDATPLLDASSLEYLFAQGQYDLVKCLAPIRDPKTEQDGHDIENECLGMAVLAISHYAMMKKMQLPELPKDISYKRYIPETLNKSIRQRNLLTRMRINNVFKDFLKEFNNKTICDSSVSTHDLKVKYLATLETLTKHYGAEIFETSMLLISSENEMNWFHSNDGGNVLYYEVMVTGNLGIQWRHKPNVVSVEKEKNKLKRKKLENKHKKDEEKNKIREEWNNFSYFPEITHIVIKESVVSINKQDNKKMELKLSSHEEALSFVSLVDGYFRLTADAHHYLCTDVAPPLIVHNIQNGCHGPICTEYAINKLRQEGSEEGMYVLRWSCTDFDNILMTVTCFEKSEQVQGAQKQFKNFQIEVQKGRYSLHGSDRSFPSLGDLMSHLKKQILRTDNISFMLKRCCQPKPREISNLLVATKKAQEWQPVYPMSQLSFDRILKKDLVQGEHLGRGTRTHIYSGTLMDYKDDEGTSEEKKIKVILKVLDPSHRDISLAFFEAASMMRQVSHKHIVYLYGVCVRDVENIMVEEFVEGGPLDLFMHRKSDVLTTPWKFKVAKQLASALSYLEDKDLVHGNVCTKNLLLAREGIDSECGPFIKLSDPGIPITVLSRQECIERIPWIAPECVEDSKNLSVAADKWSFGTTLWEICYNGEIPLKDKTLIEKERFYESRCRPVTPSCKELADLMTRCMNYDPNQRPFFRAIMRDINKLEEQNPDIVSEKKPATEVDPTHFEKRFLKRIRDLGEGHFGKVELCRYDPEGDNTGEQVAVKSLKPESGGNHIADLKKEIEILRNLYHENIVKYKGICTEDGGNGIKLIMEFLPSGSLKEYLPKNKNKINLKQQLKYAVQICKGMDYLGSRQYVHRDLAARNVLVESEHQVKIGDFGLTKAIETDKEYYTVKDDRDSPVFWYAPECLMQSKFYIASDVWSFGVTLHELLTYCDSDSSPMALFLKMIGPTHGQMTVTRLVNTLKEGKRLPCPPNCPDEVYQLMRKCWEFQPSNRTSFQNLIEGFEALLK

With `CNS(=O)(=O)C[C@H]1CC[C@H](N(C)c2ncnc3[nH]ccc23)CC1` [oclacitinib] the “effect on metastatic phenotype / 3D growth in 3D BME (words)” value [1] was “did not inhibit MG63.3 cells at any dose”, the “effect on metastatic phenotype / 3D growth in 3D BME (words)” value ([1]; listed as Oclacitinib) was “no significant effect” and the “effect on cell number in 2D monolayer” value [2] was “minimal inhibition of OS cell number”. For the same compound, the “effect on metastatic phenotype / 3D growth in 3D BME (words)” value [3] was “statistically significant but very minimal inhibition”, the “effect on metastatic phenotype / 3D growth in 3D BME (words)” value ([3]; listed as Oclacitinib) was “statistically significant but very small level of inhibition” and the “non-cytotoxic drug exposures in 2D” value ([4]; K7M2, MTT 72 h, 10 pM-100 μM) was “below 1 μM”. The “effect on cell number in 2D monolayer” value ([4]; K7M2, MTT, exposures up to 1 μM) was “minimal inhibition of OS cell number”, the “inhibitory action against JAK1 relative to JAK2” value [5] was 1.8 times and the “inhibitory action against JAK1 relative to JAK3” value [5] was 9.9 times.
